Source: patent US20100048696A1, “AGRICULTURAL DISEASE CONTROL AGENT” (Idemitsu Kosan Co., Ltd., priority 2007, published 2010)
Where two headings read alike, the source gives them in different places.

Tests used:
[1] = test system: Ralstonia solanacearum; assay type: cell-based; conditions: 5 minutes
[2] = test system: bacteria pathogens and filamentous fungi pathogens; assay type: cell-based
[3] = test system: Clavibacter michiganense subsp. Nebraskense (ATCC27822); experiment: Basic test: cutting knife disinfection, ring rot pathogens; assay type: cell-based; conditions: knife immersed 5 seconds
[4] = test system: Pyricularia oryzae; assay type: cell-based; conditions: 5 minutes
[5] = test system: Fusarium oxysporum; experiment: Material disinfection test; assay type: cell-based; conditions: 5 minutes
[6] = test system: Burkholderia glumae; experiment: Material disinfection test; assay type: cell-based; conditions: 5 minutes
[7] = test system: Botrytis cinerea; experiment: Material disinfection test; assay type: cell-based; conditions: 5 minutes
[8] = test system: Erwinia chrysanthemi; experiment: Material disinfection test; assay type: cell-based; conditions: 5 minutes
[9] = test system: Burkholderia plantarii; experiment: Material disinfection test; assay type: cell-based; conditions: 5 minutes
[10] = test system: Pythium ultimum; experiment: Material disinfection test; assay type: cell-based; conditions: 5 minutes
[11] = test system: Rhizoctonia solani; experiment: Material disinfection test; assay type: cell-based; conditions: 5 minutes
[12] = test system: Erwinia carotovora var. cartovora; experiment: Test using potatoes: blackleg pathogenesis after cutting with disinfected knife; assay type: in vivo, potatoes Norin No. 1; conditions: for Degree of pathogenesis: knife immersed 5 seconds at 5° C., average of 5 potatoes, about two months after seeding
[13] = test system: Erwinia carotovora var. cartovora; experiment: Basic test: cutting knife disinfection, blackleg pathogens; assay type: cell-based; conditions: knife immersed 5 seconds

## O=C(O)/C=C\C(=O)O [Maleic acid]
[1]; 2 times solution sprayed
  Average value of viable bacteria counts on all materials examined: 0 cfu/ml
[1]; 5 times solution sprayed
  Average value of viable bacteria counts on all materials examined: 0 cfu/ml
[1]; 25 times solution sprayed
  Average value of viable bacteria counts on all materials examined: 0 cfu/ml
[1]; 50 times solution sprayed
  Average value of viable bacteria counts on all materials examined: 0 cfu/ml
[1]; 100 times solution sprayed
  Average value of viable bacteria counts on all materials examined: 0 cfu/ml
[1]; 200 times solution sprayed
  Average value of viable bacteria counts on all materials examined: 18 cfu/ml
[1]; 500 times solution sprayed
  Average value of viable bacteria counts on all materials examined: 1.0 × 10^2 cfu/ml
[2]
  sterilization in material disinfection test (in words): complete sterilization
[3]; 2 to 10 times solutions
  sterilization of ring rot pathogens (in words): complete sterilization
[3]; 25 to 50 times solutions
  sterilization effect on ring rot pathogens (in words): high sterilization effect
[4]; 2 times solution sprayed
  average value of viable filamentous fungi counts on all materials examined: 0 cfu/ml
[4]; 5 times solution sprayed
  average value of viable filamentous fungi counts on all materials examined: 0 cfu/ml
[4]; 25 times solution sprayed
  average value of viable filamentous fungi counts on all materials examined: 0 cfu/ml
[4]; 50 times solution sprayed
  average value of viable filamentous fungi counts on all materials examined: 0 cfu/ml
[4]; 100 times solution sprayed
  average value of viable filamentous fungi counts on all materials examined: 0 cfu/ml
[4]; 200 times solution sprayed
  average value of viable filamentous fungi counts on all materials examined: 1.5 × 10^2 cfu/ml
[4]; 500 times solution sprayed
  average value of viable filamentous fungi counts on all materials examined: 2.7 × 10^2 cfu/ml
[5]; 2 times solution sprayed
  average value of viable filamentous fungi counts on all materials examined: 0 cfu/ml
[5]; 5 times solution sprayed
  average value of viable filamentous fungi counts on all materials examined: 0 cfu/ml
[5]; 25 times solution sprayed
  average value of viable filamentous fungi counts on all materials examined: 0 cfu/ml
[5]; 50 times solution sprayed
  average value of viable filamentous fungi counts on all materials examined: 0 cfu/ml
[5]; 100 times solution sprayed
  average value of viable filamentous fungi counts on all materials examined: 0 cfu/ml
[5]; 200 times solution sprayed
  average value of viable filamentous fungi counts on all materials examined: 1.1 × 10^2 cfu/ml
[5]; 500 times solution sprayed
  average value of viable filamentous fungi counts on all materials examined: 7.8 × 10^2 cfu/ml
[6]; 2 times solution sprayed
  Average value of viable bacteria counts on all materials examined: 0 cfu/ml
[6]; 5 times solution sprayed
  Average value of viable bacteria counts on all materials examined: 0 cfu/ml
[6]; 25 times solution sprayed
  Average value of viable bacteria counts on all materials examined: 0 cfu/ml
[6]; 50 times solution sprayed
  Average value of viable bacteria counts on all materials examined: 0 cfu/ml
[6]; 100 times solution sprayed
  Average value of viable bacteria counts on all materials examined: 0 cfu/ml
[6]; 200 times solution sprayed
  Average value of viable bacteria counts on all materials examined: 93 cfu/ml
[6]; 500 times solution sprayed
  Average value of viable bacteria counts on all materials examined: 5.0 × 10^3 cfu/ml
[7]; 2 times solution sprayed
  average value of viable filamentous fungi counts on all materials examined: 0 cfu/ml
[7]; 5 times solution sprayed
  average value of viable filamentous fungi counts on all materials examined: 0 cfu/ml
[7]; 25 times solution sprayed
  average value of viable filamentous fungi counts on all materials examined: 0 cfu/ml
[7]; 50 times solution sprayed
  average value of viable filamentous fungi counts on all materials examined: 0 cfu/ml
[7]; 100 times solution sprayed
  average value of viable filamentous fungi counts on all materials examined: 0 cfu/ml
[7]; 200 times solution sprayed
  average value of viable filamentous fungi counts on all materials examined: 1.7 × 10^2 cfu/ml
[7]; 500 times solution sprayed
  average value of viable filamentous fungi counts on all materials examined: 1.0 × 10^2 cfu/ml
[8]; 2 times solution sprayed
  Average value of viable bacteria counts on all materials examined: 0 cfu/ml
[8]; 5 times solution sprayed
  Average value of viable bacteria counts on all materials examined: 0 cfu/ml
[8]; 25 times solution sprayed
  Average value of viable bacteria counts on all materials examined: 0 cfu/ml
[8]; 50 times solution sprayed
  Average value of viable bacteria counts on all materials examined: 0 cfu/ml
[8]; 100 times solution sprayed
  Average value of viable bacteria counts on all materials examined: 0 cfu/ml
[8]; 200 times solution sprayed
  Average value of viable bacteria counts on all materials examined: 53 cfu/ml
[8]; 500 times solution sprayed
  Average value of viable bacteria counts on all materials examined: 3.5 × 10^3 cfu/ml
[9]; 2 times solution sprayed
  Average value of viable bacteria counts on all materials examined: 0 cfu/ml
[9]; 5 times solution sprayed
  Average value of viable bacteria counts on all materials examined: 0 cfu/ml
[9]; 25 times solution sprayed
  Average value of viable bacteria counts on all materials examined: 0 cfu/ml
[9]; 50 times solution sprayed
  Average value of viable bacteria counts on all materials examined: 0 cfu/ml
[9]; 100 times solution sprayed
  Average value of viable bacteria counts on all materials examined: 0 cfu/ml
[9]; 200 times solution sprayed
  Average value of viable bacteria counts on all materials examined: 65 cfu/ml
[9]; 500 times solution sprayed
  Average value of viable bacteria counts on all materials examined: 1.5 × 10^2 cfu/ml
[10]; 2 times solution sprayed
  average value of viable filamentous fungi counts on all materials examined: 0 cfu/ml
[10]; 5 times solution sprayed
  average value of viable filamentous fungi counts on all materials examined: 0 cfu/ml
[10]; 25 times solution sprayed
  average value of viable filamentous fungi counts on all materials examined: 0 cfu/ml
[10]; 50 times solution sprayed
  average value of viable filamentous fungi counts on all materials examined: 0 cfu/ml
[10]; 100 times solution sprayed
  average value of viable filamentous fungi counts on all materials examined: 0 cfu/ml
[10]; 200 times solution sprayed
  average value of viable filamentous fungi counts on all materials examined: 73 cfu/ml
[10]; 500 times solution sprayed
  average value of viable filamentous fungi counts on all materials examined: 3.1 × 10^3 cfu/ml
[11]; 2 times solution sprayed
  average value of viable filamentous fungi counts on all materials examined: 0 cfu/ml
[11]; 5 times solution sprayed
  average value of viable filamentous fungi counts on all materials examined: 0 cfu/ml
[11]; 25 times solution sprayed
  average value of viable filamentous fungi counts on all materials examined: 0 cfu/ml
[11]; 50 times solution sprayed
  average value of viable filamentous fungi counts on all materials examined: 0 cfu/ml
[11]; 100 times solution sprayed
  average value of viable filamentous fungi counts on all materials examined: 0 cfu/ml
[11]; 200 times solution sprayed
  average value of viable filamentous fungi counts on all materials examined: 2.5 × 10^2 cfu/ml
[11]; 500 times solution sprayed
  average value of viable filamentous fungi counts on all materials examined: 3.1 × 10^2 cfu/ml
[12]; 5 times solution
  Degree of pathogenesis: 0
[12]; 5 to 10 times solution
  sterilization in test using potatoes (in words): complete sterilization
[12]; 10 times solution
  Degree of pathogenesis: 0
[12]; 50 times solution
  sterilization effect in test using potatoes (in words): high sterilization effect
  Degree of pathogenesis: 3 (20 to less than 40%)
[13]; 2 to 10 times solutions
  sterilization of blackleg pathogens (in words): complete sterilization
[13]; 25 to 50 times solutions
  sterilization effect on blackleg pathogens (in words): high sterilization effect
